Results taken from patent US20240400549A1, “COMPOUNDS AND THEIR USES FOR TREATING NEURODEGENERATIVE DISEASE” (Academia Sinica, priority 2021, published 2024).
Peptide text beside a SMILES is read from it. * marks the point of attachment. Cbz = O=C(OCc1ccccc1)*

Experiments:
[1] = target: T1, pathogenic tau protein (pTau) (Homo sapiens, UniProt P10636, P618L); assay: Western blot of pathogenic tau protein (pTau) in SH-SY5Y-Tau-P301L cells; format: cell-based; settings: 5 μM, 24 h, doxycycline-induced SH-SY5Y-Tau-P301L cells
T1 construct: expressed in transfected cells; host or cells: SH-SY5Y-Tau-P301L (doxycycline-inducible)
Method: The SH-SY5Y-Tau-P301L cell line (SY5Y-Tau) were cultured in DMEM supplemented with 10% FBS and incubated in a humidified incubator at 37° C. with 5% CO2. To induce the expression of pathogenic Tau (pTau), SY5Y-Tau cells were seeded at 1×10^5/60-mm plate, cultured for 2-3 days to reach 70% confluence, and treated with doxycycline (1 μg/mL) for 24 hr to induce the expression of pTau.
(§1) Alternatively, cells were lysed with RIPA lysis buffer (150 mM sodium chloride, 1% Nonidet P-40, 0.5% sodium deoxycholate, 0.1% SDS, and 50 mM Tris-HCl, pH 8.0) containing 1× protease inhibitor cocktail and 1× phosphatase inhibitor cocktail to prepare total lysates, which were rotated at 4° C. for 1 h. Protein concentrations were determined with a Bio-Rad protein assay kit (Bio-Rad, Hercules, CA, USA). Protein samples were separated on 8-10% SDS-PAGE gels and electrophoretically transferred onto PVDF membranes (Millipore, Billerica, MA, USA). The membranes were incubated overnight at 4° C. with the following primary antibodies: anti-GAPDH (GeneTex; GTX627408), anti-HTT (Habel; a custom antibody raised against protein translated from the exon 1 of HTT (designated HTTEX1), anti-pTau (MC1, a generous gift from Dr. Peter Davies, the Feinstein Institute for Medical Research, New York, USA), and anti-VCP (BD, East Rutherford, NJ, USA). Immunoreactive bands were detected by enhanced chemiluminescence (ECL; Millipore) and recorded using the UVP ChemiDoc-It Imaging System (Upland, CA, USA).
Hyperphosphorylated tau protein is a major hallmark of Alzheimer's disease and many other neurological disorders (including Huntington's disease). To investigate the effects of the compounds of formula (I) or formula (II) on the pathogenic tau protein (designated pTau), SH-SY5Y-Tau-P301L cells were treated with doxycycline (1 μg/mL) (which induced the expression of pathogenic tau protein (pTau), and the indicated compound (5 μM) for 24 h. Total protein lysates were then harvested and analyzed by Western blot analyses. Results are illustrated in FIG. 4.

109Q-HTTEX1 = target: T2, 109Q-HTTEX1 (Homo sapiens, UniProt P42858); assay: Western blot of polyQ-expanded huntingtin (109Q-HTTEX1) in transfected Neuro-2a cells; format: cell-based; settings: 5 μM, 24 h
T2 construct: the polyQ-expanded N terminus of HTT translated from the exon 1 of human huntingtin gene; expressed in transfected cells; host or cells: Neuro-2a (mouse neuroblastoma)
Method: (§2) Mouse neuroblastoma cell line (Neuro-2a) were cultured in Dulbecco's modified Eagle's medium (DMEM; Gibco) containing 2×10^−3 M glutamine, 10% heat inactivated fetal bovine serum (FBS), and 100 U mL^−1 penicillin-streptomycin (Gibco) at 37° C. in a humidified incubator containing 5% CO2. Alternatively, Neuro-2a cells were cultured in Dulbecco's modified Eagle's medium (DMEM; Invitrogen, Carlsbad, CA, USA) supplemented with 10% heat-inactivated FBS. The cells were incubated in a humidified incubator at 37° C. with 10% CO2. Transfection was performed using T-Pro NTR II (Ji-Feng Biotechnology, Taiwan) following the manufacturer's protocol.
as §1
In this example, the effect of the present compound on huntingtin (HTT) protein (a protein known to cause Huntington's disease) was investigated. To this purpose, Neuro-2a cells were transiently transfected with pcDNA3-109Q-HTTEX1 (i.e., the polyQ-expanded N terminus of HTT translated from the exon 1 of human huntingtin gene (designated 109Q-HTTEX1)) and then exposed to the indicated compound (5 μM) for additional 24 h. Total protein lysates were harvested for Western blot analyses, and results are depicted in FIG. 3.

eGFP-C-TDP-43 aggregates = target: T3, eGFP-C-TDP-43 aggregates (Homo sapiens, UniProt Q13148); assay: Filter trap assay of insoluble eGFP-C-TDP-43 aggregates in transfected Neuro-2a cells; format: cell-based, mouse; settings: 5 μM
T3 construct: expressed in transfected cells; host or cells: Neuro-2a (mouse neuroblastoma)
Method: as §2
Neuro-2a cells were seeded in a 6-well plate at a concentration of 2×10^5 cells/well and incubated overnight. Once the cells were attached, Neuro-2a cells were transfected with the eGFP-C-TDP-43 plasmid (2.2 μg) using Turbofect transfection reagent (Invitrogen) and treated with or without 5 μM test compound after 2 h transfection. After incubation for another 22 h, the transfected cells were harvested by RIPA buffer containing protease inhibitor (Roche) and sonicated on ice for 10 seconds. Extracts were centrifuged at 14000 rpm for 10 min at 4° C., followed by measurement of protein concentration using a bicinchoninic acid (BCA) assay. […] Aggregated eGFP-C-TDP-43 protein trapped by the CA membranes was determined by immunoblotting. […]
In this example, the effect of the present compound on C-TDP-43 aggregates was investigated. To this purpose, the eGFP-TDP-43208-414 (hereafter referred as eGFP-C-TDP-43) expressed Neuro-2a cells were first treated with tested compound (e.g., any one of the compounds of formula (I) or (II), then, cells were lysed and the insoluble eGFP-C-TDP43 aggregates were quantified by use of filter trap assay as described in the “Materials and Methods” section; for comparison, slot blot assay was also performed by using the nitrocellulose (NC) membrane for the loading control. Results are depicted in FIG. 1.

Neuro-2a cells = assay: Cytotoxicity of compounds in Neuro-2a cells; format: cell-based, mouse; settings: for cytotoxicity as compared to that of compound II-1d: 5 or 10 μM concentration, Neuro-2a cells
[2] = system: YFP—C-TDP-43 transgenic C. elegans; assay: Swimming (thrashing) body bend assay of YFP-C-TDP-43 transgenic C. elegans; format: in vivo; settings: YFP—C-TDP-43 C. elegans, swimming in buffer
Method: The YFP—C-TDP-43 transgenic strains of C. elegans generated in this study were IW33 [Psnb-l:C-TDP-43219-414-YFP (iwIs22)]. The strains of nematodes were maintained with standard procedure and grown at 20° C. as previously described (Zhang, T. et al. Hum. Mol. Genet. 2011, 20 (10), 1952). For all assays, the transgenic young two-day (80 hours) adults were used. For larvae synchronization, the eggs were isolated by lysing gravid adult worms with freshly prepared bleaching solution (0.5 mL 5 M NaOH with 1 mL bleach) and incubated in S buffer (recipe) for overnight. For drug treatments, compound I-1b and/or DMSO were solely or along with MG132 applied to fresh NGM plates prior to installing the synchronized C. elegans. The body bends of the corresponding treatment in a duration of 30 seconds of the various strains were documented through SMZ800N stereomicroscope equipped with a CCD camera (Nikon). A body bend was counted as the head of C. elegans travels across the mid-body in 1×PBS buffer. Then, the bending videos of C. elegans were analyzed by ImageJ with the wrMTrck plugin (Nussbaum-Krammer, C. I. et al. J. Vis. Exp. 2015, (95), 52321). […]
As YFP—C-TDP-43 readily forms cytosolic aggregates in nervous system, the YFP—C-TDP-43 aggregates both in the neuron processes and neuron bodies of the ventral cord were monitored. […]

T3 sequence (Q13148 208-414 limits assumed): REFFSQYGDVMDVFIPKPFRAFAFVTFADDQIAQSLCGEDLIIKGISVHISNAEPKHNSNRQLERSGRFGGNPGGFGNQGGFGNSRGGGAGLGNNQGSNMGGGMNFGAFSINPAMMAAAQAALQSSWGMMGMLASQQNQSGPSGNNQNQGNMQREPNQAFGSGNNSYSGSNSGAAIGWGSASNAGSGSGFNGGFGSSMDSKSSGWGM
T2 sequence (P42858 with tags, fused parts or gaps): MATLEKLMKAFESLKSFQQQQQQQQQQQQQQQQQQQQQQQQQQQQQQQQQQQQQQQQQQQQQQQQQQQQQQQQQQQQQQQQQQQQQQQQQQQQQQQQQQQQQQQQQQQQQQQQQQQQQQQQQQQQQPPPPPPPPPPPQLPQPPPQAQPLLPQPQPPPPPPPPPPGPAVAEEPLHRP
T1 sequence (P10636 1-441 isoform P10636-8 P301L): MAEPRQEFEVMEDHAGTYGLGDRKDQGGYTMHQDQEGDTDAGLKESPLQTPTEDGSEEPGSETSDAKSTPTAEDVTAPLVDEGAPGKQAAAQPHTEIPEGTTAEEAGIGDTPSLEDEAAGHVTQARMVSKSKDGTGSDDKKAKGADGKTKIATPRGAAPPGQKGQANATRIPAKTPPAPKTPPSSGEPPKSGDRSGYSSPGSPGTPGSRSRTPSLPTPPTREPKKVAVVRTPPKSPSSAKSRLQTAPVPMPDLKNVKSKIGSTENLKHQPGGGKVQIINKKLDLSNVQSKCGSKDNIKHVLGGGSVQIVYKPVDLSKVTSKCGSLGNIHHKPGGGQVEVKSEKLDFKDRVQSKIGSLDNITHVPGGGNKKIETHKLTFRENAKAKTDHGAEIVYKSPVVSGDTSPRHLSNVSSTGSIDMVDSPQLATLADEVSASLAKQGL

Row | SMILES | reduction of the expression of 109Q-HTTEX1 (109Q-HTTEX1) | level of C-TDP-43 aggregate as compared to the control group (eGFP-C-TDP-43 aggregates) | reduction of the expressed level of pTau [1] | other results
1 | CNc1ccc(/C=C/c2ccc(OCCOCCOCCNc3cccc4c3C(=O)N(C3CCC(=O)NC3=O)C4=O)nc2)cc1 (stereo not drawn) [II-1b, (E)-2-(2,6-dioxopiperidin-3-yl)-4-((2-(2-(2-((5-(4-(methylamino)styryl)pyridin-2-yl)oxy)ethoxy)ethoxy)ethyl)amino)isoindoline-1,3-dione] | 20% | significantly reduce | – | reduction of the expressed level of pTau ([1]; listed as IT-1b): negligible effect; cytotoxicity as compared to that of compound II-1d (Neuro-2a cells): less cytotoxicity
2 | CN(C)c1ccc(-c2nc3ccc(OCCOCCOCCOCCNc4cccc5c4C(=O)N(C4CCC(=O)NC4=O)C5=O)cc3s2)cc1 (stereo not drawn) [I-1c, 4-((2-(2-(2-(2-((2-(4-(dimethylamino)phenyl)benzo[d]thiazol-6yl)oxy)ethoxy)ethoxy)ethoxy)ethyl)amino)-2-(2,6-dioxopiperidin-3-yl)isoindoline-1,3-dione] | approximately 50% | – | approximately 40% | –
3 | CNc1ccc(/C=C/c2ccc(OCCCCCCCCCCNc3cccc4c3C(=O)N(C3CCC(=O)NC3=O)C4=O)nc2)cc1 (stereo not drawn) [II-2d, (E)-2-(2,6-dioxopiperidin-3-yl)-4-((10-((5-(4-(methylamino)styryl)pyridin-2-yl)oxy)decyl)amino)isoindoline-1,3-dione] | – | significantly reduce | – | cytotoxicity as compared to that of compound II-1d (Neuro-2a cells): lower toxicity
4 | CNc1ccc(/C=C/c2ccc(OCCOCCOCCNc3cccc4c3C(=O)N(C3CCC(=O)NC3=O)C4=O)nc2)cc1 (stereo not drawn) [II-1d, (E)-2-(2,6-dioxopiperidin-3-yl)-4-((2-(2-(2-((5-(4-(methylamino)styryl)pyridin-2-yl)oxy)ethoxy)ethoxy)ethyl)amino)isoindoline-1,3-dione] | approximately 50% | significantly reduce | approximately 40% | –
5 | CN(C)c1ccc(-c2nc3ccc(OCCOCCNc4cccc5c4C(=O)N(C4CCC(=O)NC4=O)C5=O)cc3s2)cc1 (stereo not drawn) [I-1a, 4-((2-(2-((2-(4-(dimethylamino)phenyl)benzo[d]thiazol-6-yl)oxy)ethoxy)ethyl)amino)-2-(2,6-dioxopiperidin-3-yl)isoindoline-1,3-dione] | – | – | – | cytotoxicity comparing to mock group of Neuro-2a cells (Neuro-2a cells; 5 μM concentration): neglectable cytotoxicity
6 | CN(C)c1ccc(-c2nc3ccc(OCCOCCOCCOCCOCCNc4cccc5c4C(=O)N(C4CCC(=O)NC4=O)C5=O)cc3s2)cc1 (stereo not drawn) [I-1d, 4-((14-((2-(4-(dimethylamino)phenyl)benzo[d]thiazol-6-yl)oxy)-3,6,9,12-tetraoxatetradecyl)amino)-2-(2,6-dioxopiperidin-3-yl)isoindoline-1,3-dione] | approximately 50% | – | approximately 40% | –
7 | CC(C)C[C@@H](C=O)NC(=O)[C@H](CC(C)C)NC(=O)[C@H](CC(C)C)NC(=O)OCc1ccccc1 [MG132, reference compound] (Cbz-Leu-Leu-Leu-aldehyde) | – | – | – | bending frequency (in words) [2]: slow bending frequency
